Experimental data as given in the supplement of paper PMC10307832.

Assays:
Test in all cases: relative viability (nuclei count vs DMSO), 5 days (fraction); higher = more cells survive
[1] = compound: C1=CC2=C(C=C(C(=C2N=C1)O)N=NC3=CC4=C(C=C3)C=C(C=C4)S(=O)(=O)O)S(=O)(=O)O + CC(C)C[C@H](NC(=O)[C@H](Cc1ccccc1)NC(=O)c1cnccn1)B(O)O [Bortezomib] (partner 0.002 µM)
Procedure, shortened: (§1)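 One day after seeding in 1536-well plates, lung cancer cell lines were dosed by pin tool. Dosing was either single-drug or a fixed anchor-drug dose plus five library-drug doses (not always all listed) in √10 steps. After 5 days, nuclei were stained in one fix-and-stain step and counted on 4× images, and relative viability is the nuclei count of treated wells over that of vehicle wells, given as the median of duplicate plates.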

[2] = compound: C1=CC2=C(C=C(C(=C2N=C1)O)N=NC3=CC4=C(C=C3)C=C(C=C4)S(=O)(=O)O)S(=O)(=O)O + CS(=O)(=O)N1CCN(Cc2cc3nc(-c4cccc5[nH]ncc45)nc(N4CCOCC4)c3s2)CC1 [Pictilisib] (partner 1 µM)
Procedure, shortened: as §1

[3] = compound: C1=CC2=C(C=C(C(=C2N=C1)O)N=NC3=CC4=C(C=C3)C=C(C=C4)S(=O)(=O)O)S(=O)(=O)O + O=C(c1cc(Cc2n[nH]c(=O)c3ccccc23)ccc1F)N1CCN(C(=O)C2CC2)CC1 [Olaparib] (partner 8 µM)
Procedure, shortened: as §1

AT-7519 + Dasatinib = compound: O=C(NC1CCNCC1)c1n[nH]cc1NC(=O)c1c(Cl)cccc1Cl [AT-7519] + Cc1nc(Nc2ncc(C(=O)Nc3c(C)cccc3Cl)s2)cc(N2CCN(CCO)CC2)n1 [Dasatinib] (partner 0.075 µM)
Procedure, shortened: as §1

Row | Cell Line | relative viability ([1]; first compound 0.08 µM) | relative viability ([1]; first compound 0.253 µM) | relative viability ([1]; first compound 0.8 µM) | relative viability ([1]; first compound 2.53 µM) | relative viability ([1]; first compound 8 µM) | relative viability ([2]; first compound 0.08 µM) | relative viability ([2]; first compound 0.253 µM) | relative viability ([2]; first compound 0.8 µM) | relative viability ([2]; first compound 2.53 µM) | relative viability ([2]; first compound 8 µM) | relative viability ([3]; first compound 0.08 µM) | relative viability ([3]; first compound 0.253 µM) | relative viability ([3]; first compound 0.8 µM) | relative viability ([3]; first compound 2.53 µM) | relative viability ([3]; first compound 8 µM) | relative viability (AT-7519 + Dasatinib; first compound 0.01 µM) | relative viability (AT-7519 + Dasatinib; first compound 0.03162 µM) | relative viability (AT-7519 + Dasatinib; first compound 0.3162 µM) | relative viability (AT-7519 + Dasatinib; first compound 1 µM)
1 | 201T | 1.09 | 1.1 | 1.07 | 1.11 | 1 | 0.625 | 0.696 | 0.649 | 0.695 | 0.72 | 0.846 | 0.82 | 0.871 | 0.852 | 0.832 | 0.586 | 0.528 | 0.609 | 0.662
2 | A549 | – | – | – | – | – | 0.522 | 0.449 | 0.545 | 0.509 | 0.322 | 0.469 | 0.331 | 0.299 | 0.313 | 0.135 | – | – | – | –
3 | A-427 | 0.956 | 1.02 | 0.981 | 1.04 | 0.966 | 0.665 | 0.731 | 0.629 | 0.672 | 0.709 | 0.727 | 0.763 | 0.709 | 0.825 | 0.736 | 0.702 | 0.675 | 0.707 | 0.391
4 | ABC-1 | 0.277 | 0.393 | 0.281 | 0.246 | 0.226 | 0.629 | 0.63 | 0.579 | 0.67 | 0.643 | 0.634 | 0.762 | 0.754 | 0.684 | 0.916 | 0.525 | 0.617 | 0.398 | 0.262
5 | BEN | 0.967 | 0.75 | 0.776 | 0.875 | 0.873 | 0.617 | 0.564 | 0.493 | 0.667 | 0.48 | 0.868 | 1.13 | 1.05 | 1.27 | 0.974 | 0.354 | 0.321 | 0.399 | 0.331
6 | CAL-12T | 0.843 | 0.914 | 0.788 | 0.979 | 1.03 | 0.351 | 0.409 | 0.366 | 0.36 | 0.323 | 0.85 | 0.678 | 0.648 | 0.681 | 0.74 | 0.532 | 0.404 | 0.214 | 0.0899
7 | COR-L23 | 0.982 | 0.953 | 1.06 | 0.962 | 1.03 | 0.982 | 0.81 | 0.692 | 0.753 | 0.857 | 0.308 | 0.344 | 0.35 | 0.394 | 0.296 | 0.434 | 0.513 | 0.369 | 0.137
8 | COR-L 105 | 0.806 | 0.662 | 0.83 | 0.87 | 0.757 | 0.397 | 0.362 | 0.379 | 0.401 | 0.4 | 0.676 | 0.62 | 0.732 | 0.701 | 0.83 | 0.366 | 0.334 | 0.259 | 0.23
9 | Calu-6 | 0.982 | 1.07 | 1.05 | 1.06 | 1.02 | 0.903 | 1.01 | 0.955 | 0.974 | 0.838 | 0.55 | 0.546 | 0.55 | 0.58 | 0.658 | – | – | – | –
